Patent US12503437B2, “1,1-dimethyl-2-[(E)-2-phenylethenyl]-1H-benzo[e]indole derivatives and uses thereof” (Kaunas University of Technology, priority 2023, dated 2025)
Like-named read-outs stand apart in the source and are kept apart here.

Columns and labels:
[1] = Absorption and fluorescence properties in water; type: physicochemical
Procedure: To determine the wavelength of light, at which 1,1-dimethyl-2-[(E)-2-phenylethenyl]-1H-benzo[e]indole derivatives should be irradiated for the investigation of their photodynamic activity, the absorption and fluorescence properties thereof were measured in water. The excitation wavelength λex was set to 380 nm. Based on the results an in-house constructed LED based light source specifically designed for the irradiation of 96-well microplates and Petri dishes (Tomecka et al., CZ302829B6, 2006) was chosen, with a maximal wavelength emission of 414 nm and light intensity set to 20 mW/cm^2.

[2] = tested on: caspases 3 and 7; experiment: Caspase-3/7 assay; type: cell-based, human; conditions: G361 cells; 1.1 μM+10 J/cm^2
Procedure: The cell lysates were incubated for 4 h with 100 μM Ac-DEVD-AMC (the substrate of caspases 3 and 7) in the assay buffer (25 mM PIPES, 2 mM EGTA, 2 mM MgCl2, 5 mM DTT, pH 7.3). The fluorescence of the product was measured using a Fluoroskan Ascent microplate reader (Labsystems) at 355/460 nm (excitation/emission).
To confirm apoptosis as a mechanism of cell death, activity of pro-apoptotic caspases 3 and 7, which are involved in mediating cell death signalling transduction, was quantified upon treatment with compound 3g and light irradiation (FIG. 1).

[3] = tested on: G361 cells; experiment: Evaluation of cellular viability by microscopy (propidium iodide staining); type: cell-based, human; conditions: 1.1 μM+10 J/cm^2, 16 h after irradiation
Procedure: G361 cells were treated with compound 3g, 4 h later irradiated with 10 J/cm^2 and further cultivated for 16 h. Control cells were treated with the same compound without irradiation. After the incubation period, cells were stained with propidium iodide (final concentration 10 μg/mL) to evaluate their viability by fluorescence microscopy. In parallel, the morphology of treated cells was evaluated by light microscopy. Experiment clearly confirmed the ability of compound 3g to affect cellular viability after light irradiation in dose-dependent manner as shown by positive propidium iodide staining (>95% of analyzed cells at 1.1 μM of compound 3g+10 J/cm^2) as well as significant morphological changes reflecting ongoing cellular death (FIG. 3).

[4] = tested on: G361 cells (human skin melanoma); experiment: MTT cell viability assay with photodynamic treatment; type: cell-based
Procedure: (§1) For photodynamic treatments, G361 cells (human skin melanoma) were cultivated in DMEM medium without phenol red supplemented with 10% fetal bovine serum, 100 U/mL penicillin, 100 μg/mL streptomycin, 2 mM glutamine, at 37° C. in 5% CO2 atmosphere. Cells were treated with test compounds and after 4 h were irradiated (the maximal wavelength emission of 414 nm and different total doses up to 10 J/cm^2). Further cultivation lasted for subsequent 16, 24 or 72 h.
Cell viability (EC50) was determined using the MTT (Sigma-Aldrich) assay in 96-well microplates. Cells were seeded, next day treated with test compounds for 4 h and subsequently irradiated (the maximal wavelength emission of 414 nm and total dose of 2.5 and 10 J/cm^2). After irradiation, the cells were incubated for further 72 h and then the MTT solution was added. Cells were incubated for another 4 h at 37° C. and then the 0.1% SDS was added to the wells to solubilize the violet formazan crystals. The measurement of absorbance was carried out on reader Tecan Infinite M200Pro at 570 nm. Dark viability was measured in parallel under the same conditions without irradiation.

[5] = tested on: G361 cells; experiment: DNA damage and apoptotic cell death by immunoblotting analysis; type: cell-based, human; conditions: 24 h
Procedure: To confirm DNA damage caused by a combination of compound 3g and irradiation in G361 cells, phosphorylation of histone H2A.X at Ser-139 (γH2A.X), which is a well-accepted marker of DNA damage, was evaluated using immunoblotting analysis (FIG. 2). The cells were treated with different doses (0.1, 0.3 or 1.1 μM) of compound 3g for 4 h, then either kept in dark or exposed to light with a total irradiation dose of 10 J/cm^2 and cultivated for subsequent 24 h. After this period, the cells were harvested and analyzed by immunoblotting.
The cell lysates were prepared in RIPA buffer. Equal protein amounts were loaded and separated on SDS-polyacrylamide gels, electroblotted onto nitrocellulose membranes and after blocking, overnight incubation with specific primary antibodies and incubation with peroxidase-conjugated secondary antibodies, the peroxidase activity was detected with SuperSignal West Pico reagents (Thermo Scientific) using a CCD camera LAS-4000 (Fujifilm). All primary antibodies were diluted in TBS containing 4% BSA and 0.1% Tween 20. The specific antibodies were purchased from Cell Signaling (anti-PARP-1, clone 46D11; anti-caspase 7; HRP-linked secondary antibodies), Santa Cruz Biotechnology (anti-β-actin, clone C4), Millipore (anti-phospho-histone H2A.X, Ser139, clone JBW301).
The cleavage of PARP-1, an enzyme involved in DNA repair, which gets cut and inactivated by caspases during apoptotic cell death, was also apparent when combining said concentration and irradiation dose. […] It confirms that the above observation is a consequence of a photodynamic effect.

[6] = tested on: G361 cells; experiment: Flow cytometric detection of cell death (sub-G1 populations); type: cell-based, human; conditions: for number of cells in sub-G1 population: G361 cells
Procedure: as §1
Asynchronous cells were seeded and, after a pre-incubation period, treated with compound 3g for 4 h, irradiated and after further 24 h of incubation, samples were fixed and stained with propidium iodide. DNA content was analyzed by flow cytometry using a 488 nm laser (BD FACS Verse with software BD FACSuite™, version 1.0.6.) and cell cycle distribution was analyzed using ModFit LT (Verity Software House).

Stokes shift [1]: 102 nm
λabs [1]: 433 nm
λem ([1]; excitation wavelength 380 nm): 535 nm
EC50 ([4]; G-361, G361 cells, light energy: Dark (Table 4), read-out: EC50 ± SD): 7600 ± 900 nM
EC50 ([4]; G-361, dark kept G361 cells, 4 h treatment, further 72 h, MTT, read-out: G361 - EC50, Dark): 6200 nM
EC50 ([4]; G-361, light or radiation study, G361 cells, light energy 2.5 J/cm^2 (Table 4), read-out: EC50 ± SD): 1200 ± 300 nM
EC50 ([4]; G-361, light or radiation study, G361 cells, light energy 10 J/cm^2 (Table 4), read-out: EC50 ± SD): 700 ± 100 nM
EC50 ([4]; G-361, light or radiation study, light irradiated (414 nm, 10 J/cm^2) G361 cells, 4 h treatment, irradiation, further 72 h, MTT, read-out: G361 - EC50, 10 J/cm^2): 600 nM
SMILES: CC1(C)C(/C=C/c2ccc(C#N)c(F)c2)=Nc2ccc3ccccc3c21 [Compound 3g, 4-[(E)-2-(1,1-Dimethyl-1H-benzo[e]indol-2-yl)ethenyl]-2-fluorobenzonitrile]
capacity to induce apoptosis (caspase 3/7 activity) [2]: clearly apparent
positive propidium iodide staining [3]: > 95 % of analyzed cells
H2A.X phosphorylation (Ser-139, γH2A.X) ([5]; G361 cells kept in the dark, 0.1, 0.3 or 1.1 μM): did not show any H2A.X phosphorylation
H2A.X phosphorylation (Ser-139, γH2A.X) level ([5]; G361 cells, 1.1 μM+10 J/cm^2): massive increase
cleavage of PARP-1 ([5]; G361 cells, 1.1 μM+10 J/cm^2): apparent
caspase 7 cleavage ([5]; G361 cells, treated and irradiated (10 J/cm^2)): cleavage activation of caspase 7
number of cells in sub-G1 population ([6]; 0.3 μM, 1.1 J/cm^2, 24 h after irradiation): 0 (number of cells in sub-G1 population <10% (0))
number of cells in sub-G1 population ([6]; 0.3 μM, 3.3 J/cm^2, 24 h after irradiation): 0 (number of cells in sub-G1 population <10% (0))
number of cells in sub-G1 population ([6]; 0.3 μM, Dark, 24 h): 0 (number of cells in sub-G1 population <10% (0))
number of cells in sub-G1 population ([6]; 1.1 μM, 1.1 J/cm^2, 24 h after irradiation): 0 (number of cells in sub-G1 population <10% (0))
number of cells in sub-G1 population ([6]; 1.1 μM, 3.3 J/cm^2, 24 h after irradiation): + (10-50% (+))
number of cells in sub-G1 population ([6]; 1.1 μM, Dark, 24 h): 0 (number of cells in sub-G1 population <10% (0))
number of cells in sub-G1 population ([6]; 3.3 μM, 1.1 J/cm^2, 24 h after irradiation): + (10-50% (+))
number of cells in sub-G1 population ([6]; 3.3 μM, 3.3 J/cm^2, 24 h after irradiation): ++ (>50% (++))
number of cells in sub-G1 population ([6]; 3.3 μM, Dark, 24 h): 0 (number of cells in sub-G1 population <10% (0))
sub-diploid (sub-G1) populations ([6]; treated and irradiated G361 cells, concentration and light irradiation dependent): increase
